Data on one substance can be found in US20020076693A1, “Novel cell surface receptor for HIV retroviruses, therapeutic and diagnostic uses” (priority 1997, published 2002).

Entries after “also recorded” stand apart in the source; their conditions may differ.

The test system of one experiment is CEM cells. Put plainly: FACS binding of labeled TASP constructs to the cell-surface ligand. Also noted: species or system human. Particulars: biotin-labeled constructs, dose for 50% labeling, read-out: Affinity to bind TASP-ligand (EC50), 50% effective dose. The text has this: (§1) The cells were then washed twice with FACS buffer and fixed in 1% formaldehyde in FACS buffer. […] The fluorescence intensity was monitored by FACS analysis using Lysis II Software in FIGS. 3/4 and Tables 1/2, or Cell Quest™ Software (Beckton Dickinson and Apple Computer) in FIG. 5 +L.

The test system of another experiment is MOLT4 cells. Put plainly: FACS binding of FITC-labeled TASP after protease treatment of cells. Details: species or system human. Here is the method:
as §1
Protease treatment of CEM and MOLT cells was essentially as described previously (Borrow et al., 1992) with slight modifications. Briefly, cells were washed in PBS and in RPMI-1640 medium containing 1 mM EDTA before treatment with trypsin (Sigma; 2.5 mg/ml at 20° C. for 5 min), proteinase K (Bohringer Mannhein GmbH, Germany; 0.2 mg/ml at 37° C. for 30 min), or pronase E (Sigma, 0.1 mg/ml at 37° C. for 45 min). The reactions were stopped by 10 fold dilutions in RPMI-1640 containing 10% fetal calf serum. Cells were then washed in PBS and in FACS buffer, and processed for FACS analysis.
The expression of CD4 and CD26 in control cells (not treated with different proteases) was considered as 100%. Consequently the % positive cells after protease treatment were estimated by comparison with the untreated cells.
A general note: A flow cytometer gives signals particle by particle.

For experiment [1], the system named is V3 loop-BPs (nucleolin, PHAP II, PHAP I). Description: BIAcore biosensor binding to immobilized V3 loop-BPs. Details: species or system human. A general note: In SPR one partner is held on a chip, and binding of the other changes the refractive index at the surface.
A further experiment relates to VSV/HIV. In kind it is cell-based.
The subject of a further experiment is SIVmac. Description: SIVmac entry into HeLa cells (β-galactosidase). In kind it is cell-based, SIV. Particulars: β-galactosidase at 48 hours.
The subject of a further experiment is HIV-1 Ada-M. Description: HIV-1 Ada-M entry into HeLa P4-C5 cells (β-galactosidase). In kind it is cell-based. Particulars: HeLa P4-C5, β-galactosidase at 48 hours. Here is the method: HeLa cells (P4-C5) were treated (incubation at 37° C., 30 min) with AZT (5 μM), (α-CD4 mAb CBT4 (5 μg/ml) before infection with the different HIV isolates in order to obtain the background β-galactosidase activity compared to untreated cells (Control). During the same time, the different HIV isolates were treated (incubation at room temperature, 15 min) with 1, 5, and 10 μg/ml of heparin before addition to untreated cells. The b-galactosidase activity was assayed at 48 hours post-infection as a measure of HIV entry (3 +L7).

Experiment [2] concerns HIV-1 ELI, Ba-L, SF162, UGO29A, and Retrovir resistant isolate. Description: Infection of PBMC by different HIV-1 isolates (p24 in culture medium). In kind it is cell-based. Particulars: p24 at 6 days post-infection, range over the isolates, read-out: IC50 values, virus production in PBMC. From the text: Virus production was monitored by the concentration of p24 in the culture medium at 6 days post-infection (3 +L0). The HIV-1 isolates were:
Virus production was monitored by the concentration of p24 in the culture medium at 7 days post-infection.

A further experiment deals with HIV-1 Bal. Put plainly: Infection of human monocyte-derived macrophages by HIV-1 (p24). In kind it is cell-based. Particulars: HIV-1 BaL (TASP also Ada); p24 in supernatant. The procedure: Macrophages are infected with BaL or Ada HIV-1 viruses, in the presence of 2 μM, 1 μM or 0.1 μM of 5[Kψ (CH2N)PR]-TASP. Cells are preincubated during 30 min at 4° C. in the presence of 5[Kψ (CH2N)PR]-TASP before adding the virus. Every 3 days interval, the whole culture supernatant is collected and is replaced by RPMI 1640 culture medium supplemented with 20% fetal calf serum (FCS), 1% antibiotics, 1% glutamine, in addition to 5[Kψ (CH2N)PR]-TASP that is kept present in the culture medium until day 14 after in vitro infection. Virus production is quantitated by titration of p24 protein in the culture supernatant at different times (days) after in vitro infection. Each value represented in the graphs represents the mean of two test samples.
Macrophages are infected by the BaL VIH-1 virus in the presence of 100 μg/ml of anti-P95, anti-P40 and anti-P30 antibody. Cells are preincubated during 30 min at 4° C. in the presence of each kind of antibody before adding the virus. The antibodies are kept present in the culture medium during the whole infection period of time. […]
Cells are preincubated during 30 min at 4° C. in the presence of the different molecules either alone or in association before adding the virus. […] Virus production is quantitated by titration of p24 protein in the culture supernatant at different times (days) after in vitro infection. […]

Another experiment deals with CD4 (Homo sapiens, UniProt P01730). Put plainly: BIAcore biosensor binding to soluble CD4. The note with it: binding protein soluble recombinant CD4, BIAcore.
Experiment [3] concerns HIV-1 pseudotyped Mo-MLV virus. Put plainly: Infection of CEM cells by HIV-1 pseudotyped Mo-MLV virus (p24). The note with it: p24 at 48 hours p.i., AZT 5 μM, TASP 5 μM.
Protocol: CEM cells (2×10^5) were infected with the HIV-1 pseudoryped Mo-MLV virus (Experimental procedure) at 95 ng of p24/ml, in the absence (histogram Control) or presence of different additions (as indicated). The infection was monitored by the production of p24, which was measured in the culture supernatant at 48 hours p.i. The mean±SD of duplicate samples is given. Treatment of cells with the different antibodies was as in FIG. 6 +L. For a control of infection, cells were pretreated with 5 μM AZT before infection.
Hela cells were cotransfected by electroporation with plasmids pNL4-3 defective in env gene (Borman et al., 1995) and pE4070A expressing amphotrope envelope glycoproteins of Mo-MLV (Battini et al., 1996). Electroporation (Schwartz et al., 1996) was performed at 200 V, 960 μF, using a 4 mm wide cuvettes in a BIO-Rad Gene Pulser. The pseudotyped virus was recovered from the culture supernatant after 48 hours of culturing.
In another experiment the target is cell-surface P95 (Homo sapiens, UniProt P19338). Description: Recovery of cell-surface P95 complexed to biotin-labeled 5[Kψ(CH2N)PR]-TASP, competition by unlabeled constructs. The note with it: 50 μM unlabeled, 5 μM biotin-labeled 5[Kψ(CH2N)PR]-TASP.
Setting [4] is: binding protein(s) V3 loop-BPs, BIAcore.

Sequence of cell-surface P95 (P19338 whole entry): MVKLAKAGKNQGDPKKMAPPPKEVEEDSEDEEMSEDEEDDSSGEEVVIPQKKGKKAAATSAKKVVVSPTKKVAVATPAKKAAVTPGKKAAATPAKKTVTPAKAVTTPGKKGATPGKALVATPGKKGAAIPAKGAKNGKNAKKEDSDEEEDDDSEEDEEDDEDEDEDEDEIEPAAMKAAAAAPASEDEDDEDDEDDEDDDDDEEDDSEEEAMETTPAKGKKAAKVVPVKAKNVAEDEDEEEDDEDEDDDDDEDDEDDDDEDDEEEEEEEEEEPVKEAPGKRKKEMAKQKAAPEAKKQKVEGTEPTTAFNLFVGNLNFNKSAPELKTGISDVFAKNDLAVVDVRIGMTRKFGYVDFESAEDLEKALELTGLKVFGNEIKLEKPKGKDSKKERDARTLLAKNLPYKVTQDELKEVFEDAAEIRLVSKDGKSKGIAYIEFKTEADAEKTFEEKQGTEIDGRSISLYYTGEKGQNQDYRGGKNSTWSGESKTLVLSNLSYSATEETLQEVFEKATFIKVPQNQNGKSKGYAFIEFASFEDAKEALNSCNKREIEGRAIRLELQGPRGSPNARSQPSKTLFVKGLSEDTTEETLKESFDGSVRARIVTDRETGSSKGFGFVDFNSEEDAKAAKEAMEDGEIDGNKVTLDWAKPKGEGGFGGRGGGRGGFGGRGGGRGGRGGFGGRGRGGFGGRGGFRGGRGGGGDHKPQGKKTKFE
Protocol for cell-surface P95: Cells were then washed extensively before preparation of cell extracts. The complexes formed between the biotin-labeled TASP constructs and any cell-surface protein were then recovered by purification using avidin-agarose (“Materials and Methods”). […] Lane 1 “Extract” represents the ligand blot analysis of crude CEM cell extracts; material corresponding to 10^6 cells.
Cells were then washed in FACS buffer (2×15 ml) and nucleus-free cell extracts were prepared using buffer E (150 ml). Such extracts were first diluted in PBS containing 1 mM EDTA (600 μl) before the addition of 100 μl avidin-agarose (ImmunoPure Immobilized Avidin from Pierce Chemical Company, U.S.A.) to capture the biotin-labeled TASP complexed to its cell surface ligand(s). These suspensions were incubated at 4° C. for 2 hr, and the avidin-agarose bound proteins were washed batchwise with PBS containing 1 mM EDTA (5×5 ml). Finally, the avidin-agarose pellet was resuspended in 100 ml of 2-fold concentrated electrophoresis sample buffer and heated at 95° C. for 5 min.

Consider 5[Kψ(CH2N)PR]-TASP, for which the concentration giving a half-maximal response (EC50) in the experiment on CEM cells was 150 nM. The results for the “Cell-surface expression (% positive cells), TASP-Ligand” value with MOLT4 cells (after Pronase E treatment), with MOLT4 cells (after Proteinase K treatment) and in the experiment on MOLT4 cells (after Trypsin treatment) were 8%, 15% and 92%, respectively. Further, in [1] (setting [4]), the “Ka (equilibrium affinity constant)” value amounted to 9.61e+09 M⁻¹. Also, the results for the “ka (association rate constant)” value (in [1] (setting [4]); at CD4 (listed as 5(KΨ(CH2N)PR)TASP); at CD4 (listed as 5[KΨ(CH2N)PR]-TASP)) were 37.50 × 10^5 M^−1S^−1, “nb^b” and “No binding”, respectively. The “kd (dissociation rate constant)” value in [1] (setting [4]) is recorded as 0.39 × 10^−3 S^−1. The “equilibrium affinity constant Ka” value in [1] (binding to the V3 loop-BPs) was 9.6e+09 M⁻¹. For the same substance, the “effect on VSV-HIV pseudotyped virus entry and replication” value in the experiment with VSV/HIV is “had no effect”. Moreover, the “effect on SIVmac entry” value in the experiment on SIVmac is reported as “only a slight effect; also recorded: no significant effect”. In the experiment on HIV-1 Ada-M, the “effect on HIV-1 Ada-M entry” value is listed as “enhances”. In addition, the IC50 in experiment [2] fell in the range of 50 to 500 nM. The “effect on infection of human macrophages by HIV-1” value with HIV-1 Bal was “inhibits, in a dose-dependent manner”. Besides, the “effect on infection by HIV-1 pseudotyped Mo-MLV virus” value in experiment [3] is “no significant effect”. For the same substance, the “isolation of cell-surface P95 abolished by excess unlabeled construct” value at cell-surface P95 is “completely abolished”.

Broadly, the EC50 is the concentration that produces a half-maximal response. In general, IC50 refers to the midpoint of a concentration-inhibition curve.
